Tested on: HCT116 xenograft
Assay: HCT116 xenograft model in NSG mice (bioluminescence imaging)
Assay type: in vivo
Description: (A) 1×10^6 luciferase-expressing HCT116 cells, alone or with 2×10^7 NKL cells, were subcutaneously injected into 8- to 10-week-old NSG mice (n=4). […] HCT116 xenograft growth was analyzed by performing bioluminescence imaging on day 15. (B) 1×10^6 HCT116 cells were subcutaneously injected into 8- to 10-week-old NSG mice. […] Tumor sections were prepared for ULBP2 immunohistochemical staining on day 15. (C) NKG2D expression on the cell surface of YT-INDY and YT-INDY-NKG2D cells was analyzed by flow cytometry. […] (D) 1×10^6 luciferase-expressing HCT116 cells were subcutaneously injected into 8- to 10-week-old NSG mice with either 1×10^6 YT-INDY or YT-INDY-NKG2D cells (n=8 per group). […] HCT116 xenograft growth was analyzed by performing bioluminescence imaging on day 15. (E) MICA-B and ULBP1-3 expressions on the cell surface of HCT116 or HCT116-ΔNKG2DLs cells were analyzed by flow cytometry. […] (F) 1×10^6 luciferase-expressing HCT116 or HCT116-ΔNKG2DLs cells were subcutaneously injected into 8- to 10-week-old NSG mice with 1×10^6 YT-INDY-NKG2D cells (n=8 per group). […] HCT116 xenograft growth was analyzed by performing bioluminescence imaging on day 10. […] 1×10^6 each of luciferase-expressing HCT116 cells and YT-INDY-NKG2D were injected subcutaneously into the mice on day 0. HCT116 xenograft growth was analyzed by performing bioluminescence imaging on day 3. * P<0.05, ** P<0.01, *** P<0.005, **** P<0.0005.
Luciferase-expressing HCT116 and HT29 cells were generated by lentiviral transduction of the cells with a CMV promoter-driven luciferase expression construct engineered from the pLL3.7 vector. […] Bioluminescence imaging was performed in a Xenogen imaging system to monitor tumor growth and the data were analyzed using Living Image software (Caliper LifeSciences). For the lung metastasis model using HT29 cells, lungs were harvested for bioluminescence imaging and then fixed in 10% neutral buffered formalin, paraffin embedded, sectioned, and stained with hematoxylin and eosin. A total of six lung sections at 100-μm intervals were collected for the observation of pulmonary nodules. For the hepatic metastasis model, 0.5×10^6 of luciferase-expressing HCT116 cells were intrasplenically implanted into 6-8 week-old NSG mice.

CC(=O)S[C@@H]1CC2=CC(=O)CC[C@]2(C)[C@H]2CC[C@@]3(C)[C@@H](CC[C@@]34CCC(=O)O4)[C@H]12 [SPIR, spironolactone]
tumor growth in the presence of YT-INDY-NKG2D (1.25 mg/mouse i.p.): strongly suppressed the tumor growth
tumor growth, mice bearing NKL cells (HCT116 plus NKL cells, 1.25 mg/mouse i.p. twice a week for 2 weeks): suppressed tumor growth considerably
tumor growth, SPIR alone (HCT116 without NKL cells, 1.25 mg/mouse i.p. twice a week for 2 weeks): did not affect tumor growth
HCT116 xenograft growth in YT-INDY-bearing mice (NKG2D-negative NK cell line): did not reduce the HCT116 xenograft growth
tumor susceptibility to NK cell killing triggered by SPIR, HCT116-ΔNKG2DLs (NKG2DL-deficient HCT116 vs HCT116, YT-INDY-NKG2D): significantly reduced tumor susceptibility to NK cell killing
ULBP2 expression in the HCT116 xenografts (immunohistochemical staining day 15): significantly enhanced ULBP2 expression
tumor development after pretreatment (pretreating twice a week for 2 weeks before HCT116 and YT-INDY-NKG2D implantation): greatly inhibited tumor development

— patent US10286000B2, “Retinoid X receptor-gamma agonists and retinoid X receptor-alpha antagonists for treatment of cancer” (St. Jude Children's Research Hospital, Inc., priority 2013, dated 2019)
